Earlier results, collected in EP2266541A1, “Solid pharmaceutical composition comprising rivaroxaban” (Krka Tovarna Zdravil, D.D., Novo Mesto, priority 2009, dated 2010).

Details: stated in the background section, no method given

## O=C(NC[C@H]1CN(c2ccc(N3CCOCC3=O)cc2)C(=O)O1)c1ccc(Cl)s1 [Rivaroxaban, 5-chloro-N-{[(5S)-2-oxo-3-[4-(3-oxomorpholin-4-yl)phenyl]oxazolidin-5-yl]methyl}thiophene-2-carboxamide]
  solubility in water: about 7 mg/L
